From US7326721B2 (Hypnion, Inc., priority 2003, dated 2008)
“And” between values parts separate entries of the source, which are not always exact repeats. Equal entries are not always repeated. Where two headings read alike, the source gives them in different places.

What was measured:
Crl:CD-I(ICR)BR mice = assay: Acetic acid-induced abdominal spasm test in the mouse; type: in vivo
Protocol: (§1) The objective of this example was to determine the analgesic activity of HY-2901 (Also referred to herein as Compound 49a) following oral administration. Analgesic activity was assessed abdominal spasm test in the rat and mouse. Analgesic activity is also assessed using the tail clip test in the mouse, tail flick test in the rat, Randall-Selitto test in the rat and comparisons are made with a vehicle control group. Reference compounds ASA (acetylsalicylic acid) and morphine are also included for comparison.
(§2) The tail clip and tail flick test provide useful information about the central analgesic activity of the test article. The Randall-Selitto test provides information on the compound's ability to modify a hyperalgesic state and the abdominal spasm test provides information on the peripheral analgesic activity of the test article. The test article is administered by oral gavage, this being the intended clinical route of administration. The dose levels employed are expected to encompass the efficacy dose and provide an adequate safety margin.
(§3) All formulations were prepared on each day of dosing. The test article (HY-2901) was formulated in 0.25% (w/v) MC at the highest concentration required. Lower doses were obtained by serial dilution of the highest concentration using 0.25% (w/v) MC. The reference compound, acetylsalicylic acid, was formulated in 0.25% (w/v) MC at the required concentrations. Brewer's yeast was formulated in water for injection at the required concentration. Acetic acid was diluted with water for injection to provide the required concentration for administration.
(§4) An adequate number of male Crl:CD-I(ICR)BR mice and Wistar rats were obtained from Charles River (UK) Ltd., Margate, Kent. The mice were approximately 4 weeks of age and weigh between 18 and 22 g on arrival. The rats were approximately 5 weeks of age and weigh between 150 and 170 g on arrival. The age and weight of the animals at the start of the study was documented in the raw data and final report,
Each animal received a single administration of vehicle, test article or reference compound by oral gavage, using a constant dose volume 10 mL/kg. Individual dose volumes were based on individual body weights obtained on the day of dosing.
Forty-five minutes following oral administration each animal received a 0.25 mL intraperitoneal injection of 0.5% acetic acid. Animals were immediately placed into individual observation chambers and the number of abdominal spasms elicited over the subsequent 25-minute period was recorded.

Wistar rats = assay: Acetic acid-induced abdominal spasm test in the rat; type: in vivo; conditions: oral 100 mg/kg
Protocol: as §1, §2, §3, §4
Each animal received a single administration of vehicle, test article or reference compound by oral gavage, using a constant dose volume […]. Individual dose volumes were based on individual body weights obtained on the day of dosing.
Forty-five minutes following oral administration each animal received a 1 mL intraperitoneal injection of 1% acetic acid. Animals were immediately placed into individual observation chambers and the number of abdominal spasms elicited over the subsequent 25-minute period was recorded.

H1 histamine receptor = molecular target: T1, H1 histamine receptor (Bos taurus, UniProt P30546); assay: Histamine H1 competitive binding assay ([3H]pyrilamine); parameters: species or system bovine; conditions: read-out: Ki H1
T1 construct: the receptors were obtained from bovine cerebellar membrane tissue; from tissue; host or cells: bovine cerebellar membranes

M1 muscarinic receptor = molecular target: T2, M1 muscarinic receptor (Homo sapiens, UniProt P11229); assay: Muscarinic M1 binding assay ([3H]-scopolamine, N-methyl chloride); parameters: purchased PerkinElmer, Inc., Wellesley, Mass; host or cells: CHO cells; conditions: read-out: Ki M1
T2 sequence (P11229 1-460): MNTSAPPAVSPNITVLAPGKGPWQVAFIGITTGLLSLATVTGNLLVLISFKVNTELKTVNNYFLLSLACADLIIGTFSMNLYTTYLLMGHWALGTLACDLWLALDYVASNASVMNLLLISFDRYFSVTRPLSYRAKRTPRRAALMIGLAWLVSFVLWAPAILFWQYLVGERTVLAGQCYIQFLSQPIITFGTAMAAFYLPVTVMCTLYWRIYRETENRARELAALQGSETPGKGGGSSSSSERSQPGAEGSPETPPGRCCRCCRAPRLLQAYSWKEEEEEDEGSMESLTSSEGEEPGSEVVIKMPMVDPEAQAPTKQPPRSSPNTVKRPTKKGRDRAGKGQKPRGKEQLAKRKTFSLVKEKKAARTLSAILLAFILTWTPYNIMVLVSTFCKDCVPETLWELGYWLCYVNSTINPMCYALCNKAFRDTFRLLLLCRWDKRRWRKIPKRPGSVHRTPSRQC

hERG = hERG (Homo sapiens, UniProt Q12809)
adult male Wistar rats = assay: SCORE-2000 sleep-wakefulness, locomotor activity and body temperature monitoring; type: in vivo, rat
M3 muscarinic receptor = M3 muscarinic receptor (Homo sapiens, UniProt P20309); assay: Muscarinic M3 binding assay; parameters: purchased PerkinElmer, Inc., Wellesley, Mass; host or cells: CHO cells; conditions: read-out: Ki M3
M2 muscarinic receptor = molecular target: T3, M2 muscarinic receptor (Homo sapiens, UniProt P08172); assay: Muscarinic M2 binding assay; parameters: purchased PerkinElmer, Inc., Wellesley, Mass; host or cells: CHO cells; conditions: read-out: Ki M2
T3 sequence (P08172 1-466): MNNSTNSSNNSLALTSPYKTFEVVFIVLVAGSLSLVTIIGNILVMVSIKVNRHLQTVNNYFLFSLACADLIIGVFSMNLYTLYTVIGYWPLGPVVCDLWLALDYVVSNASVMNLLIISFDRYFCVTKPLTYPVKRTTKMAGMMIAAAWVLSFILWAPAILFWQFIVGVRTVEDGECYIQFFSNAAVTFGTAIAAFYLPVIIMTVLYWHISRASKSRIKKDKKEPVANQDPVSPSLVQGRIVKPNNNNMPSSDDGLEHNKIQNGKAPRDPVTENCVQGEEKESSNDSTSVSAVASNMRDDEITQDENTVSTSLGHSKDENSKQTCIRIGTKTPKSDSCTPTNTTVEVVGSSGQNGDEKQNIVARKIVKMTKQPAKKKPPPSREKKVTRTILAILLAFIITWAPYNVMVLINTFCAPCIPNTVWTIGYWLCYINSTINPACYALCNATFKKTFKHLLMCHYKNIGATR

male Wistar rats = type: in vivo
Protocol: The Irwin screen can provide useful information on potential side effects of compounds on general physiological and behavioural functions. The screen was conducted by administering the test compounds orally in 0.25% aqueous methylcellulose using male Wistar rats, a frequently used species in such studies and for which background data are readily available.
The Irwin screen tests for numerous parameters in animals that have been administered the test compound. For example, the screen can include: in-cage effects, e.g., dispersion, respiratory rate, locomotor activity, restlessness, fighting, alertness, apathy, and exophthalmus; in-arena effects, e.g., transfer arousal, spatial locomotion, ptosis, startle, tail elevation, piloerection, touch escape, positional passivity, catalepsy, tighting reflex, visual placing, grip strength, pinna, corneal, pain response, and wire manoeuvre; parameters observed in handling, e.g., cyanosis, cutaneous blood flow, hypothermia, body tone, pupil size, light-pupil response, lacrimation, grooming, red staining, salivation, and provoked biting; general scores e.g., fearfulness, irritability, abnormal gait, abnormal body carriage, tremors, twitches, convulsions, bizarre behaviour, writhing, vocalisation, diarrhoea, number of defaecations, number of urinations, moribund, lethality, and abnormalities detected. Further details can be found in Irwin, S; Comprehensive observational assessment: I a. A systematic, quantitative procedure for assessing the behavioural and physiological state of the mouse.
Irwin screening of the disclosed sleep-inducing agents was performed by Covance (Princeton, N.J.) according to Irwin, above; Covance Standard Operating Procedure (current revision of SOP PHARM 8.10); relevant regulatory authority guidelines ICH (International Committee for Harmonization) Guideline (Topic S7A; CPMP/ICH/539/00) on Safety Pharmacology Studies for human pharmaceuticals (November 2000); and all procedures carried out on live animals were subject to the provisions of United Kingdom Law, in particular the Animals (Scientific Procedures) Act, 1986. which obliges all UK laboratories to maintain a local ethical review process to ensure that all animal use in the establishment is carefully considered and justified; that proper account is taken of all possibilities for reduction, refinement or replacement and that high standards of accommodation and care are achieved.
All test compound formulations were prepared on the day of dosing by Covance Harrogate Dispensary. The test compounds were formulated in 0.25% aqueous methylcellulose at the highest concentration required. Lower doses were obtained by serial dilution of the highest concentration using 0.25% aqueous methylcellulose. Dose levels are expressed in terms of the amount of test compound administered without regard to purity or active content. All formulations were stored at room temperature (nominally 10 to 30° C.) in sealed containers and protected from light.
An adequate number of male Wistar (Crl:WI(Glx/BRL/Han) BR:WH) rats were obtained from Charles River Ltd. (Margate, Kent, United Kingdom). The rats were approximately 5 weeks of age and weighed between 150 and 170 g on arrival. The animals were housed in groups of no more than six in polypropylene cages (33×15×13 cm) or (45×28×20 cm) with solid floors and Grade 10 woodflakes (Datesand Ltd., Cheshire, United Kingdom) as bedding. The cages were cleaned and dried before use. Aspen chew blocks were placed within the cages as a form of environmental enrichment. Routinely, holding rooms were maintained within acceptable limits for temperature and relative humidity (nominally 19 to 25° C. and 40% to 70%, respectively). These rooms were illuminated by fluorescent light for 12 hours out of each 24 hour cycle and designed to receive at least 15 fresh air changes per hour. […]

M3 muscarinic receptor, sequence (P20309 whole entry): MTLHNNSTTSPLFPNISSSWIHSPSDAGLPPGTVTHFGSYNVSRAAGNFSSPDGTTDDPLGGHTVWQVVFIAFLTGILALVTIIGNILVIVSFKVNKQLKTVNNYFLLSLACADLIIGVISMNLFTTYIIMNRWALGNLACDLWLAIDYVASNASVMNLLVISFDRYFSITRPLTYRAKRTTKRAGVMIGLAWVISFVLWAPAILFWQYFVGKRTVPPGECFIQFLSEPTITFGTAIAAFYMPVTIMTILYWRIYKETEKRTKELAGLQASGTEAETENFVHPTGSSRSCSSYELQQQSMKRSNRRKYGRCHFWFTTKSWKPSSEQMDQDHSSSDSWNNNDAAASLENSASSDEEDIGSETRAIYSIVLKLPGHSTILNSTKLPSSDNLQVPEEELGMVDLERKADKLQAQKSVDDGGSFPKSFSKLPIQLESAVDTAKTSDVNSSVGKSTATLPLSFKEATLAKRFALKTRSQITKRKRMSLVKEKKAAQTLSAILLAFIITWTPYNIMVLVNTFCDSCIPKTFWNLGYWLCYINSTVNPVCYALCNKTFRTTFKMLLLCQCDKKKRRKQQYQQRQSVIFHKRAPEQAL
T1 sequence (P30546 whole entry): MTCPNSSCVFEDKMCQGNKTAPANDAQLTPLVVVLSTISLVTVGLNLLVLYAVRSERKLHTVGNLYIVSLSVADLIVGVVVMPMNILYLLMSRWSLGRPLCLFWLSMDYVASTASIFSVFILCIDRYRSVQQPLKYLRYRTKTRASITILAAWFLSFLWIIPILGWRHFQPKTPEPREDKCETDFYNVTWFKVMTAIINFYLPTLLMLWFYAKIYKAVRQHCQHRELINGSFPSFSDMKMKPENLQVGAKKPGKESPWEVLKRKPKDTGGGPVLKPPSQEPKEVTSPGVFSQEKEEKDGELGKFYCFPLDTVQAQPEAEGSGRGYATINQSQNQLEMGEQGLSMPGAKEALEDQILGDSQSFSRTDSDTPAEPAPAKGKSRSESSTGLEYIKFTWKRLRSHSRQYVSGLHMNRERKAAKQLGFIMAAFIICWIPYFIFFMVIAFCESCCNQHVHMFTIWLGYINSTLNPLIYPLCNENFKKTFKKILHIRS
hERG, sequence (Q12809 whole entry): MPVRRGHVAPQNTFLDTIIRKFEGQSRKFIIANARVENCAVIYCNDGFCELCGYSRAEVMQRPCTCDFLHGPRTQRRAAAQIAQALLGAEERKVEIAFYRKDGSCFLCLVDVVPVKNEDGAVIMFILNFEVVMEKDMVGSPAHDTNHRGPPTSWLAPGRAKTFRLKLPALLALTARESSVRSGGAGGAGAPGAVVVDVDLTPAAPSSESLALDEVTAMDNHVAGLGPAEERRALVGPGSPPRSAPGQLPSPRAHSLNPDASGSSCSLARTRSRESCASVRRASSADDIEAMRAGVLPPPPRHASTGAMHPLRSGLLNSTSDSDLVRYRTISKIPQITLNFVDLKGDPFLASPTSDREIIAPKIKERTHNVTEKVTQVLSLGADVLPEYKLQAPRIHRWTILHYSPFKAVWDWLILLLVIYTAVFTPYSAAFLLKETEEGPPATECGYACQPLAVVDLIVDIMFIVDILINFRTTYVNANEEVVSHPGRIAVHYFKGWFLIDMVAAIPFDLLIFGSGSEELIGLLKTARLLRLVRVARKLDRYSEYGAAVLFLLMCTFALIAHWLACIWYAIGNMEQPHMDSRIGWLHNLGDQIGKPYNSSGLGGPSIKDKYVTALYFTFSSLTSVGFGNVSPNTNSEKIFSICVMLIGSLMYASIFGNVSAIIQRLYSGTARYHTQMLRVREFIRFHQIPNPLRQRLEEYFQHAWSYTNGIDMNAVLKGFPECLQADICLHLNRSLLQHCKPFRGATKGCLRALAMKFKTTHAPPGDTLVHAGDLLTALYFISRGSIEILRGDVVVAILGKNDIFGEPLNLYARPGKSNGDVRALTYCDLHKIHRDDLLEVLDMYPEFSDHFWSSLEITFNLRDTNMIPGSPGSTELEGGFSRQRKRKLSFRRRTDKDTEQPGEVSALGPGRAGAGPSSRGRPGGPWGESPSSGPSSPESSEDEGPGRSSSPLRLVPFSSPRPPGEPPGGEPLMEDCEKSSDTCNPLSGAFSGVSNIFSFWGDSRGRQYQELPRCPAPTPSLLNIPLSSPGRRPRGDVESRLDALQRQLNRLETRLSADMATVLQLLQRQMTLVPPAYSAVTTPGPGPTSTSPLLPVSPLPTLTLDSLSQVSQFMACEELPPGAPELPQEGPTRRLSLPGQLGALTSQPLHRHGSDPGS

SMILES	Group mean (±sd) number of abdominal spasms recorded in a 25 minute period (Crl:CD-I(ICR)BR mice; oral 100 mg/kg)	Number of abdominal spasms recorded in a 25-minute period (Crl:CD-I(ICR)BR mice; oral, 100 mg/kg, individual animal data (animals 25-30))	Group mean (=sd) number pf abdominal spasms recorded in a 25-minute period (Wistar rats)	Number of abdominal spasms recorded in a 25-minute period, individual animal data (Wistar rats; 100 mg/kg)	Ki (H1 histamine receptor)	Ki (M1 muscarinic receptor)	hERG at micromolar (% blocking of the hERG channel) (hERG)	LUSB (adult male Wistar rats; dose 3 mg/kg oral at CT-18)	NREM (adult male Wistar rats; dose 3 mg/kg oral at CT-18)	LUSB (adult male Wistar rats; dose 10 mg/kg oral at CT-18)	NREM (adult male Wistar rats; dose 10 mg/kg oral at CT-18)	LUSB (adult male Wistar rats; dose 30 mg/kg oral at CT-18)	NREM (adult male Wistar rats; dose 30 mg/kg oral at CT-18)	Ki (M3 muscarinic receptor)	Ki (M2 muscarinic receptor)	Irwin at mg/kg dose (male Wistar rats; 30 mg/kg oral)	Irwin at mg/kg dose (male Wistar rats; 100 mg/kg oral)	Irwin at mg/kg dose (male Wistar rats; rat, in vivo)
CC(=O)Oc1ccccc1C(=O)O [ASA, acetylsalicylic acid, reference compound]	29 ± 29.9	17 and 8 and 45 and 82 and 1 and 23	1 ± 2.3	0 (3×) and 1 (2×) and 6														
O=C(O)CCCN1CCC(=C2c3ccccc3COc3ccccc32)CC1 [Compound 70e]					136 nM	> 10 µM	2.7% @ 1	6.6 min	25.7 min	6.6 min	27.4 min	15 min	43.3 min	> 10 µM	> 10 µM	clean	some side effects	10, 30 clean; 100 some side effects
